In one data set the test system is iNOS. Nature of the data set: NOS enzyme activity assay (Eurofins), iNOS. As to conditions: C1: 1 μM up to 5 μM as printed; 30 min reaction. The class given is biochemical. As to the method: In mammalians NO is produced by the three isoforms of NOS: iNOS, eNOS, and nNOS. To evaluate the direct influence of cl on the different isoforms of NOS, an enzyme activity assay was conducted by Eurofins. C1 was mixed with the enzyme buffer, which included co-factors and substrates and by adding the enzyme the reaction was initiated. After 30 min the reaction was stopped, and NO concentration was measured. The results are normalised to positive control performed without any additional compounds and are presented as percentage in inhibition. […] To test the compounds effect on iNOS a concentration range from […] 5 μM were applied ([…], 1, 10, 100 nM, 1, and 5 μM), and for testing eNOS and nNOS 1 nM and 1 μM were applied.

The test system of data set [1] is primary cultured neonatal microglia. Nature of the data set: PolyIC induced NO release, Griess assay. The format is cell-based, mouse. To be noted: for NO concentration, % of stimulated control: 100 μg/ml PolyIC 24 hours. As to the method: (§1) Primary cultured neonatal microglia. For preparation of cultured neonatal microglia, P0-P3 mice were used. 10 brains were extracted, meninges and cerebellum were removed and put on ice with Hank's balanced salt solution (HBSS). The dissected brains were washed 3 times before adding 400 μL trypsin (0.1 mg/L) and DNAse (5 μg/L) in phosphate buffered saline (PBS). After 2 min of incubation with this solution, the reaction was blocked by adding plain medium. After removal of the medium, 1 mg DNAse was added and the cells were mechanically dissociated, with a Pasteur pipette followed by a glass pipette. The cells were centrifuged for 10 min at 129 g at 4° C. The supernatant was discarded. The pellet was resuspended in plain medium and plated (2.5 brains/flask) in Poly-L-Lysine coated flasks. The cells were washed after 2 days with PBS and incubated for another 7 days in plain medium. Afterwards the medium was replaced by plain medium with 33% L929 conditioned medium. After 2 days, cells were harvested by shaking them for 30 min at 150 rpm. The supernatant was centrifuged for 10 min at 129 g at 4° C. The cells were plated into a 96 well plate (100 000 cells/well, 200 μL medium per well). This procedure could be repeated 2 times with a 2 day interval.
(§2) Griess assay. Cells were seeded according to the protocols described above, after compounds and stimuli were added, 100 μl of supernatant was transferred into a new 96 well plate and 100 μl freshly mixed Griess reagent were added. Griess reagent was composed of reagent A (100 mg Naphthylethylene in 50 ml aqua dest.) and reagent B (1 g Sulfanilamide, […] H3PO4 (85%) in 44 mL aqua dest.) mixed 1:1. The solution was carefully mixed and the absorbance was determined in a microplate reader at a wavelength of 550 nm.
(§3) In order to test whether C1 decreases NO release induced by other stimulation agents besides LPS which is mimicking a bacterial infection, the inventors used IFNγ to mimic a Th1 cell response (Yau et al., 2016) and PolyIC to mimic an anti-viral response (Jiang and Pisetsky, 2006). Given that our aim is to determine the compound's effect on already stimulated microglia (LPS, IFNγ, and PolyIC), each individual experiment is normalized to its stimulated control.
Background: The Griess reaction detects nitrite, a stable product of nitric oxide.

Data set [2] shares this test system. Nature of the data set: Propidium iodide based proliferation and cell death assay in microglia. To be noted: 2.5 μM C1, 48 hours, unstimulated. As to the method: as §1, with “Afterwards the medium was replaced by plain medium with 33% L929 conditioned medium. After 2 days, cells were harvested by shaking them for 30 min at 150 rpm. The supernatant was centrifuged for 10 min at 129 g at 4° C. The cells were plated into a 96 well plate (100 000 cells/well, 200 μL medium per well). This procedure could be repeated 2 times with a 2 day interval.” left out
Propidium iodide based proliferation and cell death assay. […] The intensity of the propidium iodide signal of the dead cells was measured using a microplate reader. Afterwards, all cells were killed with a 10 min incubation of 10% DMSO and the propidium iodide signal of all cells was measured. […] The percentage of dead cells was calculated by dividing the dead-cell-signal by the all-cell-signal. Proliferation was calculated as a relative value to the plain medium control.

Data set [3] has the same test system. Nature of the data set: IFNγ induced NO release, Griess assay. The format is cell-based, mouse. As to conditions: for level of NO, % of its initial concentration (stimulated control): 100 ng/ml IFNγ 48 hours. As to the method: as §1, §2, §3
The subject of data set [4] is bone marrow derived macrophages. Nature of the data set: NO release in bone marrow derived macrophages, Griess assay. The format is cell-based, mouse. As to conditions: for NO release: 0.25 μM C1; for NO release, % of positive control: 2.5 μM C1. As to the method: Primary cultured macrophages. Bone marrow macrophages were isolated from C57BL/6 adult mice (P49-56) as previously described (Marim et al., 2010). In summary, mice were killed by cervical dislocation and the femurs were removed by cutting through the tibia near the pelvic bone and below the knee. Any muscle connected to the bone was carefully removed. Ice cold sterile PBS was slowly flushed through the bone and the contents were collected in a sterile 15 mL polypropylene tube on ice. After centrifugation for 10 min at 200 g at 4° C., red blood cells were lysed by adding 3-10 mL ammonium chloride solution. After a 3-5 min recovery period, the suspension was centrifuged for 10 min at 200 g at 4° C. and the supernatant was removed. Cells were plated in a 10 cm dish with plain medium containing 10 ng/mL M-CSF and cultured for 7 days to allow differentiation. 50 000 cells were plated with 200 μL medium per well in a 96 well plate.
as §2
Microglia and macrophages share many of their immune properties, therefore the inventors evaluated the impact of C1 on the release of NO and the pro-inflammatory cytokines IL1β, IL6, and TNFα on bone marrow derived macrophages (Amici et al., 2017; Li and Barres, 2017). Bone marrow derived macrophages were isolated from adult mice and pre-treated for 1 hour with C1 (0.025 μM, 0.25 μM, or 2.5 μM), its corresponding concentration of DMSO (1.25×10-5, 12.5×10-5, or 125×10-5 v/v), or plain medium before a stimulus was added. The NO release was measured after stimulation with either 1 μg/ml LPS for 48 hours (FIG. 2-1A), 100 μg/mL PolyIC for 24 hours (FIG. 2-1B) or 100 ng/ml IFNγ for 48 hours (FIG. 2-1C). […] DMSO had no effect on the NO release in bone marrow derived macrophages stimulated with LPS or PolyIC (FIGS. 2-1A and B). However, it reduced the IFNγ induced NO release in these cells independently of the applied dose (1.25×10-5 v/v: 85%, p<0.0043; 12.5×10-5 v/v: 83%, p<0.0016; 125×10-5 v/v: 85%, p<0.0046, FIG. 2-1C), similar to the effect observed in microglia when stimulated with IFNγ (FIG. 2A).

Where “and” joins values, the source holds several entries; their conditions need not be identical. Identical values can stand only once.

Regarding `COc1ccc(NC(=O)C(NC(=O)C2CCCN2C(=O)OCc2ccccc2)c2ccc(OC)cc2)cc1` (stereo not drawn) [C1], in the data set with iNOS, the “enzymatic activity of iNOS” value is “does not interfere”. For the same molecule, the “NO concentration, % of stimulated control” value came to 66% in data set [1] (25 nM C1), 29% in data set [1] (250 nM C1) and 25% in data set [1] (2.5 μM C1). The “NO release upon stimulation with PolyIC” value in data set [1] (pre-treatment with C1) was “dose dependent decrease”. For the same molecule, in data set [2], the “percentage of dead cells in microglia” value is 8.49%. Moreover, the “level of NO, % of its initial concentration (stimulated control)” value is listed as 84% in data set [3] (25 nM C1), 41% in data set [3] (250 nM C1) and 22% in data set [3] (2.5 μM C1). Besides, in data set [3] (pre-treatment with C1), the “NO release upon stimulation with IFNγ” value is “dose dependent decrease”. Also, the NO release entry in data set [4] (1 μg/mL LPS 48 hours) is listed as “reduced the NO release significantly”; in data set [4] (100 μg/mL PolyIC 24 hours), “significant decrease”. Moreover, the “NO release, % of positive control” value in data set [4] (100 ng/mL IFNγ 48 hours) was 18%; in data set [4] (100 μg/mL PolyIC 24 hours), 15.01±10.32% and 15%. In data set [4] (0.025, 0.25, 2.5 μM C1, LPS, PolyIC or IFNγ), the “NO release, dose dependence” value is recorded as “reduced the NO release in a dose dependent manner”.

For the origin of these results see patent US20240025849A1 (MAX DELBRÜCK-CENTRUM FÜR MOLEKULARE MEDIZIN IN DER …, priority 2020, published 2024).
